Experiments:
[1] = tested on: SPANX-B-specific CD4^+ T cell lines; test: IFNγ secretion (ELISA) by CD4+ T cell lines stimulated with antigen-pulsed autologous DCs; type: cell-based, human; conditions: for IFNγ secretion by CD4+ T cell lines on stimulation with pulsed DCs: CD4+ T cell lines generated with SPANX-B protein-treated autologous DCs, FIGS. 3A-C; for IFNγ secretion by SPANX-B-specific CD4+ T cell line: irradiated mature DCs pulsed with 1 μg/ml peptide, FIG. 3A; for generation of SPANX-B-specific CD4+ T cell lines using the peptide: lines recognized DCs incubated with SPANX-B protein dose-dependently, FIGS. 3C, 3D; for IFNγ secretion by SPANX-B-specific CD4+ T cell lines, fine mapping of the epitope: autologous DCs pulsed with peptide, lines generated to SPANX-B protein, Pep-1 or Pep-G1, FIG. 3D
Procedure: T cell stimulation: To generate CD4^+ T cell lines, CD4^+ T cells (2×10^6) were stimulated with autologous DC pulsed with either SPANX-B protein (2 μg/mL), or with SPANX-B peptides (10 μg/mL) in the presence of IL-2 (20 U/mL) for seven days. T cells were re-stimulated once every week two times. To generate CD8^+ CTL lines, 2×10^6 CD8^+ T cells were stimulated with autologous DC pulsed with either SPANX-B protein (2 μg/mL) and SPANX-B peptides (10 μg/mL) in the presence of IL-2 (20 U/mL) and IL-15 (10 ng/mL) for seven days. T cells were weekly restimulated with peptide-loaded DCs for several times. To test antigen-specific activity of CD4^+ T cell lines, all experiments were performed in triplicates in 96-well plates with 1×10^5 CD4^+ T cells/well. […] T cell activity was judged by IFNγ secretion in culture supernatants by ELISA after 48 hours incubation (see below and Schiavo et al., Blood 107(12):4597-605, 2006). For most experiments, unless specified, 1:5 Target:Effector ratio was used.
Detection of IFNγ by ELISA: ELISA was performed as described elsewhere (Schiavo et al., Blood 107(12):4597-605, 2006). Briefly, 96-well flat-bottom plates were coated with 2 μg/mL of anti-human IFNγ antibody (BD pharmingen, San Jose, Calif.) to capture secreted IFNγ. The captured IFNγ was detected with 0.5 μg/mL biotin-conjugated mouse anti-human IFNγ antibody and streptavidin-HRP (BD pharmingen, San Jose, Calif.). The assay was visualized with TMB peroxidase solution B (KPL, Gaithersburg, Md.) and read at OD450.

[2] = tested on: murine anti-SPANX-B antibody; test: ELISA on peptide-coated plates with murine anti-SPANX-B antibody; type: binding; conditions: Ab from mice DNA immunized with SPANX-B-expressing plasmid; FIG. 1B
Procedure: FIGS. 1A-1F are digital images, a graph and a schematic diagram illustrating the specificity of antibody and expression of SPANX-B in human immortalized tumor cell lines. FIG. 1A is a digital image showing ANEA-I0117 antibody recognized SPANX-B expressed in mouse erythroleukemia RL5 cells. Western blotting results are shown with ANEA-I0117 anti-SPANX-B antibody on lysates of RL5 cells (2 μl, 5 μl and 10 μl, respectively) transiently transduced with plasmid expressing SPANX-B (SPANX-B). Control lysates were made from untransduced parental RL5 cells (Control). FIG. 1B is a graph showing murine anti-SPANX-B antibody, which was generated from mice DNA immunized with plasmid expressing SPANX-B, recognized unique SPANX-B-specific insert of SPANX-B (encoded in Pep-G1 and Pep-2 peptides), ELISA assay on plates coated with various peptides that are depicted in FIG. 1C. […] FIG. 1D is a digital image showing the expression of SPANX-B protein evaluated by Western blotting with ANEA-I0117 Ab (1:5000) in lysates of cell lines, such as HEK293 (HEK), Jurkat, CRL 7002, UACC1273, 938 Mel, CCRF-CEM (CEM), and normal human donor PBMC (upper panel). The blot was stripped and hybridized with anti-actin antibody (lower panel). FIGS. 1E and 1F are digital images obtained from an immunohistochemistry and immunofluorescent assay, respectively, of melanoma (UACC1273) and ovarian carcinoma (2008 and OVCAR3) cell lines. The cells were stained with ANEA-I0117 Ab (right and bottom panels in FIG. 1E and FIG. 1F, respectively); and control IgG (left and upper panels in FIG. 1E and FIG. 1F, respectively).
SPANX-B can be often found in the list of highly expressed genes in microarray study of human tumors, including hematological malignancies and breast cancer (see, for example, Minn et al., Nature 436(7050):518-24, 2005). To confirm this, expression was tested using two antibodies, a rabbit 3ANEA Ab and mouse SPANX-B Ab. […] The second SPANX-B Ab was produced from mice DNA immunized with SPANX-B-expressing plasmid. […] In contrast, it reacted with a second peptide Pep-2 that only represented unique for SPANX-B insert of Pep-G1 (FIGS. 1B and C).

SPANX-B = test: DNA immunization of mice, serum ELISA on peptide-coated plates; type: in vivo; conditions: plates coated with peptide 5 μg/ml; FIG. 7
Procedure: Mice were intradermally immunized twice with 25 μg plasmid DNA constructs including MIP-3α-SPANX-B. Sera were tested for SPANX-B antibodies by ELISA assay in 96-well plates coated with the indicated peptides (5 μg/ml). […] The other was near the N-terminus, encoded by Pep-G1 (SEQ ID NO: 14) and Pep-2 (SEQ ID NO: 2) and Pep-3 (SEQ ID NO: 3).

[3] = tested on: SPANX-B-specific CD8^+ T cell lines; test: IFNγ secretion (ELISA) by CD8+ T cell lines stimulated with antigen-pulsed autologous DCs; type: cell-based, human; conditions: for IFNγ secretion by SPANX-B-specific CD8+ T cells on stimulation with pulsed DCs: irradiated autologous DCs, lines generated with SPANX-B protein, FIG. 5A
UACC1273 melanoma cells = test: CTL 6-hour 51Cr release assay on UACC1273; type: cell-based, human; conditions: SPANX-B-expressing, HLA-A2-positive target; FIGS. 6A-C
Procedure: (§1) CTL assay and HLA blocking experiments: Tumor cell lines (target cells, 2×10^6) were incubated in 200 μL of fetal bovine serum (FBS) with 200 μCi of Na2^51CrO4 (PerkinElmer, Billerica, Mass.) for 2 hours at 37° C. Cells were washed with RPMI three times and resuspended in cRPMI with 10% FBS at 1×10^5 cells/mL. CTL assay was performed in triplicate in 96-well round bottom plates with 1×10^4/well ^51Cr-labeled target cells. The target cells were co-cultured at indicated ratios with effector cells (peptide-specific CD8^+ T cells) for 6 hours. The specific ^51Cr-release is calculated using formula: ((test sample release−spontaneous release)/(maximum release−spontaneous release))×100). Maximum release is for the target cells alone lysed with 2% Triton X-100.

HEK293 cells = test: CTL 51Cr release assay on HEK293 cells pulsed with Pep-2; type: cell-based, human; conditions: FIGS. 6A-C; for lysis of HLA-A2-expressing HEK293 cells pulsed with Pep-2 by CD8+ T cell lines generated to the antigen: HEK-A2, pulsed with 1 μg/ml Pep-2; for lysis of HLA-A2-negative parental HEK293 cells by CD8+ T cell lines generated to the antigen: HEK
Procedure: as §1

[4] = tested on: primary human melanoma cells; test: CTL 51Cr release assay on primary human melanoma cells; type: cell-based; conditions: for lysis of HLA-A2-expressing primary melanoma tumors by CD8+ lines generated to the antigen: Tc526, Tc624 and Tc2492; for lysis of HLA-A2-negative primary melanoma tumors by CD8+ lines generated to the antigen: Tc2547 and Tc938, FIG. 6E
Procedure: as §1

HLA-DR = test: HLA blocking of Pep-9-induced CD4+ T cell activation; type: cell-based, human
Procedure: The MHC […] inhibition assays: HLA specific mAbs or control isotype matched IgG were preincubated with peptide-pulsed DCs at concentration of 10 μg/mL for one hour at 4° C. Cells were washed with PBS, irradiated at 4500 rad and mixed with T cells at indicated ratios. To block HLA class I expression, tumor cells lines were pretreated with 10 μg/mL of anti-HLA-A,B,C antibodies (BD Pharmingen, San Jose, Calif.) for one hour at 4° C. Cells were washed with PBS and labeled with ^51Cr as indicated above. IFNγ production was determined by ELISA after 48 hour incubation as described (Schiavo et al., Blood 107(12):4597-605, 2006).
Next, to characterize HLA specificity, the CD4^+ T cell lines were stimulated with autologous DCs pulsed with Pep-9 in the presence of antibody that blocked HLA-DR, or HLA-DQ, or HLA-DP molecules. The stimulation of the SPANX-B-specific CD4^+ T cells was not affected by the presence of control antibody or antibodies that block HLA-DQ, or HLA-DP, or anti-MHC class I (FIGS. 4 A-C).

Molecule: ALWFRNHFVFGGGTK (Synthetic peptide MOPC (9)) [control murine class II peptide, reference compound]
- IFNγ secretion by CD4+ T cell lines on stimulation with pulsed DCs [1]: failed to respond

Molecule: ANEANEANKTMPETPTGDSDP (Synthetic peptide Pep-G2)
- IFNγ secretion by CD4+ T cell lines on stimulation with pulsed DCs [1]: failed to respond
- recognition of peptide by mouse SPANX-B Ab (ELISA) [2]: but not other region-specific peptides

Molecule: ENRINPDQMEEEEFIEITTERPKK (Synthetic peptide Pep-8)
- B cell epitope recognized by sera of immunized mice (ELISA) (SPANX-B): Immunodominant B cell epitopes

Molecule: GQQSSVRRL (Synthetic peptide Pep-3)
- recognition of peptide by mouse SPANX-B Ab (ELISA) [2]: but not other region-specific peptides
- B cell epitope recognized by sera of immunized mice (ELISA) (SPANX-B): Immunodominant B cell epitopes

Molecule: KRSVPCESNEANEANEANKTM (Synthetic peptide Pep-G1)
- IFNγ secretion by CD4+ T cell lines on stimulation with pulsed DCs [1]: activated the CD4^+ T cell lines to secrete IFNγ
- IFNγ secretion by SPANX-B-specific CD4+ T cell line [1]: can be also activated to secrete IFNγ
- generation of SPANX-B-specific CD4+ T cell lines using the peptide [1]: readily generated
- recognition of peptide by mouse SPANX-B Ab (ELISA) [2]: preferentially recognized
- B cell epitope recognized by sera of immunized mice (ELISA) (SPANX-B): Immunodominant B cell epitopes

Molecule: KRTSPEELVNDHARENRINPDQME (Synthetic peptide Pep-7)
- B cell epitope recognized by sera of immunized mice (ELISA) (SPANX-B): Immunodominant B cell epitopes

Molecule: LVVRYRRNV (Synthetic peptide Pep-4)
- recognition of SPANX-B protein-pretreated DCs by CD8+ T cells generated with peptide-pulsed DCs [3]: also recognized SPANX-B protein-pretreated DCs
- IFNγ secretion by SPANX-B-specific CD8+ T cells on stimulation with pulsed DCs [3]: secreted IFNγ
- lysis of UACC1273 melanoma cells by CD8+ T cell lines generated to the antigen (UACC1273 melanoma cells): killed UACC1273 melanoma cells
- lysis of HLA-A2-expressing HEK293 cells pulsed with Pep-2 by CD8+ T cell lines generated to the antigen (HEK293 cells): lysed HLA-A2-expressing HEK293 cells that were pulsed with Pep-2
- lysis of HLA-A2-negative parental HEK293 cells by CD8+ T cell lines generated to the antigen (HEK293 cells): did not kill
- lysis of HLA-A2-expressing primary melanoma tumors by CD8+ lines generated to the antigen [4]: recognized and lysed
- lysis of HLA-A2-negative primary melanoma tumors by CD8+ lines generated to the antigen [4]: not affected

Molecule: QPAPKKMKTSESSTILVVRYRRNV (Synthetic peptide Pep-6)
- IFNγ secretion by CD4+ T cell lines on stimulation with pulsed DCs [1]: failed to respond
- recognition of peptide by mouse SPANX-B Ab (ELISA) [2]: but not other region-specific peptides

Molecule: RSAPCASAEVNE (Synthetic peptide Pep-9 Mod) [Pep-9-Mod, reference compound]
- IFNγ secretion by SPANX-B-specific CD4+ T cell lines, fine mapping of the epitope [1]: did not respond

Molecule: RSVPCESNEANE (Synthetic peptide Pep-9)
- IFNγ secretion by SPANX-B-specific CD4+ T cell lines, fine mapping of the epitope [1]: able to activate the SPANX-B-specific CD4^+ T cell lines
- HLA restriction of recognition by human CD4+ T cells (HLA-DR): HLA-DR-restricted fashion

Molecule: RSVPCESNEVNETMPETPTGDSDP (Synthetic peptide Pep-5)
- IFNγ secretion by CD4+ T cell lines on stimulation with pulsed DCs [1]: activated the CD4^+ T cell lines to secrete IFNγ
- IFNγ secretion by SPANX-B-specific CD4+ T cell line [1]: can be also activated to secrete IFNγ
- generation of SPANX-B-specific CD4+ T cell lines using the peptide [1]: readily generated
- recognition of peptide by mouse SPANX-B Ab (ELISA) [2]: failed to recognize

B1: SPANX-B protein: Recombinant SPANX-B protein fused with maltose binding protein (MBP), produced and purified from E. coli (protein)
chain: MGQQSSVRRLKRSVPCESNEANEANEANKTMPETPTGDSDPQPAPKKMKTSESSTILVVRYRRNVKRTSPEELLNDHARENRINPDQMEEEEFIEITTERPKK
- IFNγ secretion by CD4+ T cell lines on stimulation with pulsed DCs [1]: specifically recognized SPANX-B-treated DCs
- SPANX-B-specific CD8+ T cell lines generated, donors ([3]; HLA-A2-positive peripheral blood CD8+ T cells, DCs incubated with SPANX-B protein): 3/3
- IFNγ secretion by SPANX-B-specific CD8+ T cells on stimulation with pulsed DCs [3]: secreted IFNγ
- lysis of UACC1273 melanoma cells by CD8+ T cell lines generated to the antigen (UACC1273 melanoma cells): killed UACC1273 melanoma cells
- lysis of HLA-A2-expressing HEK293 cells pulsed with Pep-2 by CD8+ T cell lines generated to the antigen (HEK293 cells): lysed HLA-A2-expressing HEK293 cells that were pulsed with Pep-2
- lysis of HLA-A2-negative parental HEK293 cells by CD8+ T cell lines generated to the antigen (HEK293 cells): did not kill
- lysis of HLA-A2-expressing primary melanoma tumors by CD8+ lines generated to the antigen [4]: recognized and lysed
- lysis of HLA-A2-negative primary melanoma tumors by CD8+ lines generated to the antigen [4]: not affected
